In patent US12691046B2, “Ester compositions” (Evonik Operations GmbH, priority 2021, dated 2026):

Tests used:
[1] = Pigment/powder dispersion: increase in viscosity of the oil (Brookfield); assay type: physicochemical; settings: for Increase in viscosity: 60% emollient + 40% pigment/powder mixture (Table 2), Brookfield, spindle 5, 50 rpm at 20° C.; for dispersibility of the pigment/powder mixture in the oil: judged from the increase in viscosity
Text: Alkyl carboxylates according to the invention can help in the wetting of hydrophobized pigments and accordingly can be widely used in coloured cosmetics. The pigment wetting properties of cosmetic oils can be determined by measuring the viscosity of the pure oil, in comparison with the viscosity of the oil after dispersing a defined amount of pigments. The smaller the increase in viscosity thus determined, the better the property of an oil in wetting pigments on the surface and accordingly in dispersing.
The viscosities of the oils before addition of the pigment/powder mixture are determined using a Brookfield viscometer, spindle 5, 50 rpm at 20° C. After dispersion of the pigment/powder mixture, the viscosity is again determined in an identical way.

[2] = Mixtures of pure pigments with cosmetic oil: increase in viscosity (rheometer); assay type: physicochemical; settings: for dispersibility of pure pigments in the oil: judged from the increase in viscosity; for Increase in viscosity, Carbon Black (CI77266, UniPure Black LC 902, Sensient): pigment:oil 15:85 w/w; for Increase in viscosity, Carbon Black (CI77266, UniPure Black LC 902, Sensient) / Increase in viscosity, (Yellow) Iron Oxide (CI 77492); Dimethicone (BYO-DS4, KOBO) / Increase in viscosity, (Black) Iron Oxides (CI 77499); Dimethicone (BYO-DS3, KOBO) / Increase in viscosity, Titanium Dioxide (CI 77891); Dimethicone (DHL-TRI-77891, US Cosmetics) / Increase in viscosity, (Red) Iron Oxides (CI 77491); Dimethicone (BYO-DS3, KOBO): rheometer MCR 302, 20° C., 1/100 sec, triplicate averaged; for Increase in viscosity, (Yellow) Iron Oxide (CI 77492); Dimethicone (BYO-DS4, KOBO): pigment:oil 40:60 w/w; for Increase in viscosity, (Black) Iron Oxides (CI 77499); Dimethicone (BYO-DS3, KOBO) / Increase in viscosity, Titanium Dioxide (CI 77891); Dimethicone (DHL-TRI-77891, US Cosmetics): pigment:oil 60:40 w/w; for Increase in viscosity, (Red) Iron Oxides (CI 77491); Dimethicone (BYO-DS3, KOBO): pigment:oil 65:35 w/w
Experimental: Here too, the pigment wetting properties of cosmetic oils can be determined by measuring the viscosity of the pure oil, in comparison with the viscosity of the oil after dispersing a defined amount of the pure pigment. The smaller the increase in viscosity thus determined, the better the property of an oil in wetting pigments on the surface and accordingly in dispersing.
The mixture is then stirred for 3 min at 3,500 rpm's and placed onto rheometer for measurement (Anton Paar Modular Compact Rheometer model MCR 302, 20° C., 1/100 sec). The viscosities of the neat cosmetics oils are also measured. Pigment mixtures and neat cosmetic oils are run in triplicate and the results averaged.
The increase in viscosity comparing the neat cosmetic oil and the pigment/cosmetic oil mixture is represented below (given in mPa·s): […]

| Structure (SMILES) | Increase in viscosity [1] [mPa · s] | dispersibility of the pigment/powder mixture in the oil [1] | dispersibility of pure pigments in the oil [2] | Increase in viscosity, Carbon Black (CI77266, UniPure Black LC 902, Sensient) [2] [mPa·s] | Increase in viscosity, (Yellow) Iron Oxide (CI 77492); Dimethicone (BYO-DS4, KOBO) [2] [mPa·s] | Increase in viscosity, (Black) Iron Oxides (CI 77499); Dimethicone (BYO-DS3, KOBO) [2] [mPa·s] | Increase in viscosity, Titanium Dioxide (CI 77891); Dimethicone (DHL-TRI-77891, US Cosmetics) [2] [mPa·s] | Increase in viscosity, (Red) Iron Oxides (CI 77491); Dimethicone (BYO-DS3, KOBO) [2] [mPa·s] |
| --- | --- | --- | --- | --- | --- | --- | --- | --- |
| CCCCCCCCCCCCCCCCOC(=O)C(CC)CCCC (stereo not shown) [Cetyl Ethylhexanoate] | 2520 | improved | improved | 625 | 2357 | 8718 | 807 | 5393 |
| CCCCCCCCCCCC(=O)OCCC(C)C [Dermofeel ® sensolv, Isoamyl Laurate] | 1820 | improved | improved | 223 | 195 | 458 | 121 | 2238 |
